# ChEMBL document CHEMBL3988442, “University of Dundee, Small-Polar-MMV Screening Library” (2021)
# Target: T1, Coenzyme A biosynthesis bifunctional protein CoaBC (Mycobacterium tuberculosis (strain ATCC 25618 / H37Rv), UniProt P9WNZ1)
# T1 sequence (P9WNZ1 whole entry): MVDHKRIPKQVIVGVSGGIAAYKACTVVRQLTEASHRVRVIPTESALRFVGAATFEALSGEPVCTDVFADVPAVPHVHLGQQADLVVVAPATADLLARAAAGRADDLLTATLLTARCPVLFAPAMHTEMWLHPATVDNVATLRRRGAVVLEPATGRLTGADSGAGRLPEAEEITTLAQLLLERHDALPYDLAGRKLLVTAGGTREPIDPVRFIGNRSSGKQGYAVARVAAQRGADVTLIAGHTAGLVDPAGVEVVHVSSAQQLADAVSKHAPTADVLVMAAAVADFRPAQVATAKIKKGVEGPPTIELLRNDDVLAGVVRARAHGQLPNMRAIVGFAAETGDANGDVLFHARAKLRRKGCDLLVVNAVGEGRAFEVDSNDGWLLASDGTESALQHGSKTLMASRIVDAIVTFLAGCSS
# Assay: Biomol Green assay for MtCoaBC inhibitor, OD650 read
# Format: functional
row,Structure (SMILES),IC50 [µM]
1,O=C(NCC(O)c1ccsc1)c1sccc1OC(F)F (configuration not stated),> 30.2
2,O=C(CCNc1ccccc1)NC1CCN(C(=O)C2CCCCC2)CC1,> 30.2
3,COc1ccccc1CC(C)CC(=O)NC(C)C (configuration not stated),> 30.2
4,CCCS(=O)(=O)NCC(O)c1c(Cl)cccc1Cl (configuration not stated),> 30.2
5,CC(C)N(CC(C)(C)O)C(=O)NC1CC1,> 30.2
6,O=C(NCc1ccon1)c1c(F)cc(Br)cc1F,> 30.2
7,Cc1cccc(NC(=O)NC2CCC3(C2)OCCO3)c1Cl (configuration not stated),> 30.2
8,CCc1nc(NS(=O)(=O)c2cccc(F)c2C)no1,> 30.2
9,CN1CCCC(CNC(=O)N(C)Cc2ccc(Cl)c(F)c2)C1 (configuration not stated),> 30.2
10,CC(C(=O)N1CCCC1)S(=O)(=O)Cc1noc(C(C)(C)C)n1 (configuration not stated),> 30.2
11,COC(=O)C(C)CN(C)S(=O)(=O)c1c(Br)cc2[nH]c(=O)oc2c1Cl (configuration not stated),> 30.2
12,CC(c1nc(-c2ccccc2)no1)N1CCc2c(ncn2C2CC2)C1 (configuration not stated),> 30.2
13,C1=C(CNC2CCc3ncnn3C2)COc2ccccc21 (configuration not stated),> 30.2
14,Cc1nc(-c2cc(C(=O)O)co2)cs1,> 30.2
15,NC(=O)CC1CCN(S(=O)(=O)c2cnn(-c3ccccc3)c2)CC1,> 30.2
16,NC(=O)C1CCN(S(=O)(=O)c2cnn(-c3ccccc3)c2)C1 (configuration not stated),> 30.2
17,CCCc1noc(C(C)N2CCN(CCn3ccccc3=O)CC2)n1 (configuration not stated),> 30.2
18,CC(NC(=O)CSCC(N)=O)c1ccc(Oc2ccccc2)cc1 (configuration not stated),> 30.2
19,Cc1ccc(CNC(=O)COc2ccc3c(c2)OCC3O)cc1 (configuration not stated),> 30.2

row,Structure (SMILES),IC50 [µM]
1,CCC(c1ccc(F)cc1F)N1CCN(CCO)CC1 (configuration not stated),> 30.2
2,CN1CCOC(CNCC(=O)NCCC2=CCCCC2)C1 (configuration not stated),> 30.2
3,Cc1cc(NC(=O)C2CCN(c3ncccc3C#N)CC2)no1,> 50.1
4,CC1CCN(c2ccc(C(=O)N3CCCC3c3ccc[nH]3)cn2)CC1 (configuration not stated),> 30.2
5,CC(C)N1CCC(NC(=O)c2cn(-c3ccc(F)cc3)nn2)C1 (configuration not stated),> 30.2
6,CCSCc1csc(-c2ccc(S(C)(=O)=O)cc2)n1,> 30.2
7,COc1ccccc1OCC(=O)NS(=O)(=O)c1cccnc1,> 30.2
8,Cc1cnn(Cc2ccc(NC(=O)N3CCCC3)cc2)c1,> 30.2
9,CCN(CC)C1CCN(C(=O)NCc2cccc(-n3cccn3)c2)C1 (configuration not stated),> 30.2
10,COc1c(C2CCCN2CC(=O)Nc2nccs2)c(C)nn1C (configuration not stated),> 30.2
11,CCn1ccnc1CNCc1ccc(C)cc1OC(C)(C)C,> 30.2
12,CC1COCCN1C(=O)Cc1cc(Cl)c2c(c1)OCCO2 (configuration not stated),> 30.2
13,COCCNC(=O)CCNc1cc(C)nc(-c2ccncc2)n1,> 30.2
14,COc1ccccc1N1CCN(CC(=O)NC(C)c2ccco2)CC1 (configuration not stated),> 30.2
15,COC1CCN(CCNC(=O)NC(C)c2ccc(F)c(F)c2)CC1 (configuration not stated),> 30.2
16,O=C(Nc1ccc(-n2cncn2)nc1)N(CC1CCOC1)C1CC1 (configuration not stated),> 30.2
17,CC(NC(=O)CNC(=O)OC(C)(C)C)c1ccc(Cl)s1 (configuration not stated),> 30.2
18,Cc1cccc(C(=O)NCC2CCS(=O)(=O)C2)n1 (configuration not stated),> 30.2
19,CCc1ncncc1C(=O)NCCNS(=O)(=O)c1ccccc1,> 50.1

row,Structure (SMILES),IC50 [µM]
1,CCc1ncncc1C(=O)NCCNS(=O)(=O)c1ccc(C)cc1,> 30.2
2,Cc1nc(N2CCC(CN3CCCC3)CC2)c2cnn(C)c2n1,> 30.2
3,Cc1ccc(C)c(CC(=O)NC2(C#N)CCOCC2)c1,> 30.2
4,Cc1cc(C)n(C2CN(CC(=O)N(C)Cc3cnn(C)c3)C2)n1,> 30.2
5,CC(C)C(NC(=O)NCC1(CO)CC1)c1nnc2n1CCC2 (configuration not stated),> 30.2
6,O=C(NCC1CC1)[C@H]1C[C@@H]2CN(S(=O)(=O)Cc3ccccc3)C[C@H]1O2,> 30.2
7,NC(=O)N1CCC2(CC1)CN(c1ccsc1)C(=O)CO2,> 30.2
8,Cc1cnc(N2CCn3cc(CNC(=O)CC4CC4)nc3C2)nc1,> 30.2
9,Cc1cc(C(=O)N[C@H](C)c2onc(-c3cccnc3)c2C(=O)O)c(C)o1,> 30.2
10,NC(Cc1nc(-c2ccccc2)no1)c1ccccc1 (configuration not stated),> 30.2
11,Cc1csc(CCNCc2cnc3c(c2)c(C)nn3C)n1,> 30.2
12,O=C(NCc1ccco1)[C@H]1C[C@@H]2CCN(c3nncs3)C[C@H]2O1,> 30.2
13,COCCNC(=O)[C@H]1C[C@@H]2CCN(c3ccccc3)C[C@H]2O1,> 30.2
14,Cn1cc(N2C(=O)CC[C@@H]3[C@H]2CCN3Cc2nccs2)cn1,> 30.2
15,O=C(NCc1ccco1)[C@H]1C[C@@H]2CCN(c3ncccn3)C[C@H]2O1,> 30.2
16,CN(C)CC(=O)N1CCC2(CC1)CN(c1ccsc1)C(=O)CO2,> 30.2
17,Cn1nccc1-c1ccc2nc(C3CCN(CC4CC4)CC3)nn2c1,> 30.2
18,CCN1C[C@H]2[C@@H](C1)N(S(=O)(=O)c1cccnc1)CC[C@H]2OC,> 30.2
19,COc1cc(O)cc2c1C(=O)CC(c1ccc(O)cc1)O2 (configuration not stated),> 30.2
